Data reported in BigSolDB 2.1.

CC(=O)Nc1ccc([N+](=O)[O-])cc1
solubility (mole fraction)
Conditions | 278.15 K | 283.15 K | 288.15 K | 293.15 K | 298.15 K | 303.15 K | 308.15 K | 313.15 K | 318.15 K | 323.15 K
in 1,4-dioxane | – | – | 0.00627 | 0.00697 | 0.00787 | 0.00907 | 0.0107 | 0.0127 | 0.0151 | 0.0182
in DMF | 0.102 | 0.107 | 0.112 | 0.118 | 0.126 | 0.135 | 0.145 | 0.156 | 0.171 | 0.187
in NMP | 0.0745 | 0.0841 | 0.0984 | 0.111 | 0.126 | 0.144 | 0.163 | 0.184 | 0.21 | 0.244
in acetonitrile | 0.00235 | 0.00271 | 0.00325 | 0.00386 | 0.00456 | 0.00545 | 0.0065 | 0.00778 | 0.00923 | 0.011
in cyclohexane | – | 1.94e-06 | 2.71e-06 | 3.77e-06 | 5.18e-06 | 6.81e-06 | 8.98e-06 | 1.16e-05 | 1.49e-05 | 1.91e-05
in ethanol | 0.00182 | 0.00222 | 0.00265 | 0.00318 | 0.00377 | 0.00458 | 0.00542 | 0.00641 | 0.00772 | 0.00921
in ethyl acetate | 0.00357 | 0.00414 | 0.00481 | 0.00562 | 0.00682 | 0.00824 | 0.00993 | 0.0118 | 0.0144 | 0.0171
in ethylene glycol | 0.000807 | 0.000953 | 0.00114 | 0.00141 | 0.00171 | 0.00208 | 0.00246 | 0.00301 | 0.00367 | 0.00451
in isobutanol | 0.00132 | 0.00158 | 0.00193 | 0.00233 | 0.00284 | 0.00335 | 0.00405 | 0.00488 | 0.00602 | 0.00728
in isopropanol | 0.00166 | 0.00201 | 0.00241 | 0.00292 | 0.00348 | 0.00436 | 0.00515 | 0.0062 | 0.00736 | 0.00868
in methanol | 0.00147 | 0.00182 | 0.00215 | 0.00261 | 0.00312 | 0.00366 | 0.00441 | 0.00543 | 0.0065 | 0.00772
in n-butanol | 0.00225 | 0.0026 | 0.00308 | 0.0036 | 0.0043 | 0.00512 | 0.0062 | 0.0074 | 0.00894 | 0.0106
in n-heptanol | 0.00264 | 0.00303 | 0.00354 | 0.00417 | 0.00508 | 0.00621 | 0.00742 | 0.00911 | 0.0108 | 0.013
in n-propanol | 0.0021 | 0.00251 | 0.00297 | 0.00352 | 0.00418 | 0.00496 | 0.00595 | 0.00714 | 0.00856 | 0.0101
in water | 6.37e-06 | 7.72e-06 | 1.04e-05 | 1.34e-05 | 1.68e-05 | 2.23e-05 | 2.89e-05 | 3.67e-05 | 4.69e-05 | 6.01e-05
